{"source": "patent US4798787A", "about": "“Peptide antibodies and their use in detecting oncogene products” (Cetus Corporation, priority 1984, dated 1989)", "molecular_target": "T1, p21 protein (v-Ki-ras p21, serine at position 12) (Kirsten murine sarcoma virus, UniProt P01117)", "T1 construct": "made in house; host or cells: E. coli (plasmid pINIII-ras, gift of M. Inouye, printed 'Inouge')", "T1 sequence (P01117 whole entry)": "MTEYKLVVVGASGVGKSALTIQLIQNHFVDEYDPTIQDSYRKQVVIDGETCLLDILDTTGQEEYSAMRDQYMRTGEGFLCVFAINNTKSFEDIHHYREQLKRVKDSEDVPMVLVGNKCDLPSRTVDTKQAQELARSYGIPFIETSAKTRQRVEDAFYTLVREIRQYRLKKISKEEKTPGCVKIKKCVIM", "experiment": "Inhibition by nucleotides of anti-p21ser antibody binding to p21 protein under mild denaturation conditions", "conditions": "10 mM nucleotide", "excerpt": "An alternative explanation is that the antibody binds at some distance from the GTP binding site and yet alters GTP binding by disturbing the tertiary structure of the protein. […] The invention herein is not limited to either explanation.", "data": [{"molecule": "Nc1nc2c(ncn2[C@@H]2O[C@H](COP(=O)(O)OP(=O)(O)OP(=O)(O)O)[C@@H](O)[C@H]2O)c(=O)[nH]1", "note": "[GTP, guanosine triphosphate]", "values": [{"measurement": "inhibition of the binding of anti-p21ser antibodies to p21 protein", "value": "substantially inhibit"}]}, {"molecule": "Nc1ncnc2c1ncn2[C@@H]1O[C@H](COP(=O)(O)OP(=O)(O)OP(=O)(O)O)[C@@H](O)[C@H]1O", "note": "[ATP]", "values": [{"measurement": "inhibition of the binding of anti-p21ser antibodies to p21 protein", "value": "not"}]}]}
